Results taken from ChEMBL document CHEMBL2390827, “Ligand-based design, synthesis, and experimental evaluation of novel benzofuroxan derivatives as anti-Trypanosoma cruzi agents” (Eur J Med Chem, 2013).
The source made the active and inactive calls. The calls are words filed in the database; no cut-off is given here.

Assays:
Trypanosoma cruzi = assay: Antitrypanosomal activity against epimastigote stage of Trypanosoma cruzi Y assessed as parasite growth inhibition after 5 days by spectrophotometric analysis; type: functional
[1] = Cytotoxicity against human fibroblasts assessed as growth inhibition after 24 hrs by MTT assay; type: cell-based; conditions: Fibroblast
[2] = Selectivity index, ratio of IC50 for human fibroblasts to GI50 for epimastigote stage of Trypanosoma cruzi Y

Cc1ccc(C(=O)N/N=C/c2ccc3c(c2)no[n+]3[O-])cc1
log1/GI50 (Trypanosoma cruzi): 4.93 | GI50 (Trypanosoma cruzi; Trypanosoma cruzi, Y, 120 h): 11.9 µM

Nc1ccc(C(=O)N/N=C/c2ccc3c(c2)no[n+]3[O-])cc1
IC50 [1]: > 200 µM | log1/GI50 (Trypanosoma cruzi): 3.93 | GI50 (Trypanosoma cruzi; Trypanosoma cruzi, Y, 120 h): 117 µM | Selectivity Index [2]: 1.71

O=C(N/N=C/c1ccc2c(c1)no[n+]2[O-])c1ccc(C(F)(F)F)cc1
log1/GI50 (Trypanosoma cruzi): 5.02 | GI50 (Trypanosoma cruzi; Trypanosoma cruzi, Y, 120 h): 9.62 µM

CCc1ccc(C(=O)N/N=C/c2ccc3c(c2)no[n+]3[O-])cc1
log1/GI50 (Trypanosoma cruzi): 5 | GI50 (Trypanosoma cruzi; Trypanosoma cruzi, Y, 120 h): 9.91 µM

NS(=O)(=O)c1ccc(C(=O)N/N=C/c2ccc3c(c2)no[n+]3[O-])cc1
IC50 [1]: 60 µM | log1/GI50 (Trypanosoma cruzi): 4.22 | GI50 (Trypanosoma cruzi; Trypanosoma cruzi, Y, 120 h): 60.4 µM | Selectivity Index [2]: 0.99

CC(=O)c1ccc(C(=O)N/N=C/c2ccc3c(c2)no[n+]3[O-])cc1
log1/GI50 (Trypanosoma cruzi): 4.8 | GI50 (Trypanosoma cruzi; Trypanosoma cruzi, Y, 120 h): 16 µM

N#Cc1ccc(C(=O)N/N=C/c2ccc3c(c2)no[n+]3[O-])cc1
log1/GI50 (Trypanosoma cruzi): 4.58 | GI50 (Trypanosoma cruzi; Trypanosoma cruzi, Y, 120 h): 26.6 µM

O=C(N/N=C/c1ccc2c(c1)no[n+]2[O-])c1ccc([N+](=O)[O-])cc1
log1/GI50 (Trypanosoma cruzi): 4.75 | GI50 (Trypanosoma cruzi; Trypanosoma cruzi, Y, 120 h): 17.8 µM

O=C(N/N=C/c1ccc([N+](=O)[O-])o1)c1ccc(O)cc1 [NIFUROXAZIDE]
IC50 [1]: 77.4 µM | log1/GI50 (Trypanosoma cruzi): 3.92 | GI50 (Trypanosoma cruzi; Trypanosoma cruzi, Y, 120 h): 120 µM | Selectivity Index [2]: 0.64

O=C(N/N=C/c1ccc2c(c1)no[n+]2[O-])c1ccc(Cl)c(Cl)c1
IC50 [1]: 65 µM | log1/GI50 (Trypanosoma cruzi): 5.04 | GI50 (Trypanosoma cruzi; Trypanosoma cruzi, Y, 120 h): 9.07 µM | Selectivity Index [2]: 7.17

CC1CS(=O)(=O)CCN1/N=C/c1ccc([N+](=O)[O-])o1 (stereo unspecified) [NIFURTIMOX]
IC50 [1]: > 200 µM | log1/GI50 (Trypanosoma cruzi): 5.42 | GI50 (Trypanosoma cruzi; Trypanosoma cruzi, Y, 120 h): 3.78 µM | Selectivity Index [2]: >52.91

CCOc1ccc(C(=O)N/N=C/c2ccc3c(c2)no[n+]3[O-])cc1
log1/GI50 (Trypanosoma cruzi): 5.02 | GI50 (Trypanosoma cruzi; Trypanosoma cruzi, Y, 120 h): 9.62 µM

CCCCc1ccc(C(=O)N/N=C/c2ccc3c(c2)no[n+]3[O-])cc1
IC50 [1]: > 200 µM | log1/GI50 (Trypanosoma cruzi): 5.43 | GI50 (Trypanosoma cruzi; Trypanosoma cruzi, Y, 120 h): 3.72 µM | Selectivity Index [2]: >53.76

O=C(N/N=C/c1ccc2c(c1)no[n+]2[O-])c1ccc(F)cc1
log1/GI50 (Trypanosoma cruzi): 4.82 | GI50 (Trypanosoma cruzi; Trypanosoma cruzi, Y, 120 h): 15.3 µM

O=C(N/N=C/c1ccc2c(c1)no[n+]2[O-])c1ccccc1
log1/GI50 (Trypanosoma cruzi): 4.77 | GI50 (Trypanosoma cruzi; Trypanosoma cruzi, Y, 120 h): 16.9 µM

O=C(N/N=C/c1ccc2c(c1)no[n+]2[O-])c1ccc([N+](=O)[O-])c(C(F)(F)F)c1
log1/GI50 (Trypanosoma cruzi): 4.8 | GI50 (Trypanosoma cruzi; Trypanosoma cruzi, Y, 120 h): 15.9 µM

COc1ccc(C(=O)N/N=C/c2ccc3c(c2)no[n+]3[O-])cc1
log1/GI50 (Trypanosoma cruzi): 4.88 | GI50 (Trypanosoma cruzi; Trypanosoma cruzi, Y, 120 h): 13.2 µM

O=C(N/N=C/c1ccc2c(c1)no[n+]2[O-])c1ccc(O)cc1
GI50 (Trypanosoma cruzi): inactive

O=C(N/N=C/c1ccc2c(c1)no[n+]2[O-])c1ccc(Cl)cc1Cl
IC50 [1]: 38.3 µM | log1/GI50 (Trypanosoma cruzi): 5.02 | GI50 (Trypanosoma cruzi; Trypanosoma cruzi, Y, 120 h): 9.54 µM | Selectivity Index [2]: 4.01

CC(C)(C)c1ccc(C(=O)N/N=C/c2ccc3c(c2)no[n+]3[O-])cc1
IC50 [1]: > 200 µM | log1/GI50 (Trypanosoma cruzi): 5.24 | GI50 (Trypanosoma cruzi; Trypanosoma cruzi, Y, 120 h): 5.45 µM | Selectivity Index [2]: >36.7

O=C(N/N=C/c1ccc2c(c1)no[n+]2[O-])c1ccc(I)cc1
IC50 [1]: > 200 µM | log1/GI50 (Trypanosoma cruzi): 5.21 | GI50 (Trypanosoma cruzi; Trypanosoma cruzi, Y, 120 h): 6.11 µM | Selectivity Index [2]: >32.73

CCCOc1ccc(C(=O)N/N=C/c2ccc3c(c2)no[n+]3[O-])cc1
IC50 [1]: > 200 µM | log1/GI50 (Trypanosoma cruzi): 5.39 | GI50 (Trypanosoma cruzi; Trypanosoma cruzi, Y, 120 h): 4.07 µM | Selectivity Index [2]: >49.14

CCCc1ccc(C(=O)N/N=C/c2ccc3c(c2)no[n+]3[O-])cc1
IC50 [1]: > 200 µM | log1/GI50 (Trypanosoma cruzi): 5.52 | GI50 (Trypanosoma cruzi; Trypanosoma cruzi, Y, 120 h): 3.04 µM | Selectivity Index [2]: >65.79

CCCCOc1ccc(C(=O)N/N=C/c2ccc3c(c2)no[n+]3[O-])cc1
IC50 [1]: > 200 µM | log1/GI50 (Trypanosoma cruzi): 5.24 | GI50 (Trypanosoma cruzi; Trypanosoma cruzi, Y, 120 h): 5.78 µM | Selectivity Index [2]: >34.6

CN(C)c1ccc(C(=O)N/N=C/c2ccc3c(c2)no[n+]3[O-])cc1
GI50 (Trypanosoma cruzi): inactive

CC(C)c1ccc(C(=O)N/N=C/c2ccc3c(c2)no[n+]3[O-])cc1
IC50 [1]: > 200 µM | log1/GI50 (Trypanosoma cruzi): 5.15 | GI50 (Trypanosoma cruzi; Trypanosoma cruzi, Y, 120 h): 7.12 µM | Selectivity Index [2]: >28.09

O=C(N/N=C/c1ccc2c(c1)no[n+]2[O-])c1ccc(Br)cc1
IC50 [1]: > 200 µM | log1/GI50 (Trypanosoma cruzi): 5.11 | GI50 (Trypanosoma cruzi; Trypanosoma cruzi, Y, 120 h): 7.78 µM | Selectivity Index [2]: >25.71

O=C(N/N=C/c1ccc2c(c1)no[n+]2[O-])c1ccc(Cl)cc1
log1/GI50 (Trypanosoma cruzi): 5 | GI50 (Trypanosoma cruzi; Trypanosoma cruzi, Y, 120 h): 9.96 µM

O=C(Cn1ccnc1[N+](=O)[O-])NCc1ccccc1 [BENZNIDAZOLE]
IC50 [1]: > 200 µM | log1/GI50 (Trypanosoma cruzi): 4.68 | GI50 (Trypanosoma cruzi; Trypanosoma cruzi, Y, 120 h): 22.7 µM | Selectivity Index [2]: >9.6
